Experimental data: ChEMBL document CHEMBL1201862, “PubChem BioAssay data set” (2004)
Calls of active or inactive are those of the source.

Tests used:
[1] = viability of PTEN-deleted HCT116 cells – cell-based, HCT116 PTEN knockout, dose response (AID 1047); format: functional;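 further: HCT116 colon tumor cells with PTEN knocked out; cells exposed to compound for 60 hours before readout; potency for loss of cell viability measured by luminescence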
[2] = test system: HEK293; test: membrane integrity loss in HEK cells – cell-based, fluorescence, cytotoxicity control for IDE activator project, dose response (AID 588440); format: functional; conditions: Homo sapiens;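 further: cytotoxicity by LDH release measuring loss of membrane integrity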
[3] = biological target: T1, Streptokinase A (Streptococcus pyogenes serotype M1, UniProt P10520); test: viability-normalized secreted streptokinase activity reduction – plasminogen activation absorbance, OD405, dose response (AID 1914); format: functional, Streptococcus pyogenes M1 GAS;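 further: secreted streptokinase activity via plasminogen activation per viability signal from cell pellet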
T1 sequence (P10520 whole entry): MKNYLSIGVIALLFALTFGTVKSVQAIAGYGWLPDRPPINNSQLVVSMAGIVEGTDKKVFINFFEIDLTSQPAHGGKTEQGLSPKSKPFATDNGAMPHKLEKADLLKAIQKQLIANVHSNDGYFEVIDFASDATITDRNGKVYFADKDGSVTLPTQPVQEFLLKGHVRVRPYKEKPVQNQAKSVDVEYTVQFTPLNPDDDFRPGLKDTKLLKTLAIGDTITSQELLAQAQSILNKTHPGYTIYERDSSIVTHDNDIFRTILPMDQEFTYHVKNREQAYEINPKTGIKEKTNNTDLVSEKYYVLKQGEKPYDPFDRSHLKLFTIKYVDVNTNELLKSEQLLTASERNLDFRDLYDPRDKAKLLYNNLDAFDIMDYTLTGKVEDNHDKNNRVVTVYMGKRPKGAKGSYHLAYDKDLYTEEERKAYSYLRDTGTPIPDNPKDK

[4] = Trypanosoma cruzi growth suppression in host cells – NIH3T3 host cells, beta-gal luminescence, confirmation (AID 2044); format: functional, cell-based;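 further: intracellular parasites grown in NIH/3T3 mouse fibroblasts as host cells; luminescent beta-galactosidase reporter signal from transgenic T. cruzi replicating inside host cells; inhibitors lower the luminescence signal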
[5] = luciferase reporter signal suppression in cells – H4 neuroglioma cells, luminescence, dose response (AID 1990); format: functional, cell-based
[6] = biological target: Beta-2 adrenergic receptor (Homo sapiens, UniProt P07550); test: ADRB2 activation measured by internalization – cell-based, FAP fluorogen, flow cytometry, cherry pick 1, dose response (AID 588763); format: functional
[7] = loss of viability in HepG2 cells – cell-based, CellTiter-Glo, cherry-picked, cytotoxicity control for Shn3 inhibitor project, dose response (AID 624134); format: functional
[8] = NIH3T3 cell viability loss – ATP luminescence, mouse fibroblasts, counter-screen, dose response (AID 2010); format: functional, cell-based;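 further: cells exposed to compound for about 90 hours before reading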
[9] = alpha-synuclein stem-loop luciferase translation blockers – H4 neuroglioma cells, luminescence, confirmation (AID 1988); format: functional, cell-based
[10] = test system: HEK293; test: optical interference in Abeta FP readout, dose response, artefact control for IDE activator project, biochemical, fluorescence polarization (AID 588442); format: functional, cell-based; conditions: Homo sapiens
[11] = biological target: T2, Insulin-degrading enzyme (Homo sapiens, UniProt P14735); test: cellular IDE activation of Abeta substrate cleavage – fluorescence polarization, HEK cells, dose response (AID 588439); format: functional, cell-based
T2 sequence (P14735 whole entry): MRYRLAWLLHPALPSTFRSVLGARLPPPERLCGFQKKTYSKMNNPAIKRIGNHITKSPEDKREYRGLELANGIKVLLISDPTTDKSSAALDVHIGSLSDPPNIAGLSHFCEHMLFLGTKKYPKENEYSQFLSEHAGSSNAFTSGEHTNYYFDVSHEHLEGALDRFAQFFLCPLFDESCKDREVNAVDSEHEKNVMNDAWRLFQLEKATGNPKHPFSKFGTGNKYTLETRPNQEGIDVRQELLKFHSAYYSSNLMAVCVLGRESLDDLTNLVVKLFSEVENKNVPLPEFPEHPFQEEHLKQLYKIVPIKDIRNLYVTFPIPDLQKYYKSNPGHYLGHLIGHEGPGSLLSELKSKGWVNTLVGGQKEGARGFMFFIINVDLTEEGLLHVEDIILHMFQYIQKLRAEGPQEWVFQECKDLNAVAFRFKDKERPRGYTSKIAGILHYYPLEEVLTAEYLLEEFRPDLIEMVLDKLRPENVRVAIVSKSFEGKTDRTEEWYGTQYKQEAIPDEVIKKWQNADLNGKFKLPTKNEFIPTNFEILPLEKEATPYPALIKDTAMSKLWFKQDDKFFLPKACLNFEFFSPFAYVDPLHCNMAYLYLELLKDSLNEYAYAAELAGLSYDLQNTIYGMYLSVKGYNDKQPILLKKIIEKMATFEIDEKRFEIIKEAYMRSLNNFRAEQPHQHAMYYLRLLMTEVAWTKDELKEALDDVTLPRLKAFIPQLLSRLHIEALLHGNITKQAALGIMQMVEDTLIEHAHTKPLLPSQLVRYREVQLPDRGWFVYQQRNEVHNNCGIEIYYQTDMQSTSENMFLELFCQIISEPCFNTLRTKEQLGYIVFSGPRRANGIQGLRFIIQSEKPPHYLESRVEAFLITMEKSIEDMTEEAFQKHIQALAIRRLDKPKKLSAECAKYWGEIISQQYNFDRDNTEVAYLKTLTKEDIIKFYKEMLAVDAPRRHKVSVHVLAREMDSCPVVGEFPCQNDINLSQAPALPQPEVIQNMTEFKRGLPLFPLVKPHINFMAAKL

[12] = reduction of Shn3 3'UTR-driven luciferase in osteoblasts – cell-based, Clone20 osteoblasts, firefly luciferase, cherry-picked, dose response (AID 624132); format: functional;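 further: firefly luciferase luminescence from reporter carrying the Shn3 3'UTR in osteoblasts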
[13] = test system: HEK293; test: EBV LMP1 TES2 canonical NF-kB signalling blockers – cell-based, HEK293, luciferase, cherry-pick, dose response (AID 588343); format: functional; conditions: Homo sapiens
[14] = test system: Streptococcus; test: GAS UMAA2166 growth inhibition – luminescence, BacTiterGlo, counter-screen for streptokinase expression inhibitor project, dose response (AID 1915); format: functional, organism-based;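 further: potency for reduction of bacterial viability or growth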
[15] = biological target: T2, Insulin-degrading enzyme; test: recombinant IDE activation, cell-free – biochemical, fluorescence polarization, counter-screen for IDE activator project, dose response (AID 588681)
[16] = viability of HCT116 lacking mutant beta-catenin – cell-based, human colon tumor, dose response (AID 1045); format: functional;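 further: HCT116 colon tumor cells with beta catenin knocked out; cells exposed to compound for 60 hours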
[17] = non-specific 3'UTR reporter inhibition in Clone20-Shn3RL – cell-based, Renilla luciferase, cherry-picked, counter-screen for Shn3 inhibitor project, dose response (AID 624133); format: functional
[18] = test system: INS1; test: INS-1E survival protection against cytokine death – cell-based, luminescence, retest, dose response (AID 449756); format: functional; conditions: Rattus norvegicus;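 further: cell death triggered by IL-1 beta plus TNF-alpha plus IFN-gamma mixture; protective hits raise ATP signal compared with cytokine alone wells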
[19] = test system: Streptococcus sp. 'group A'; test: Streptococcus pyogenes SK(-)GAS viability under kanamycin – luminescence, BacTiterGlo, confirmation, counter-screen for streptokinase expression inhibitor project, dose response (AID 1900); format: functional, organism-based
[20] = Luminescence Cell-Based Dose Response HTS to Identify Inhibitors of 5'UTR Stem-Loop Driven Prion Protein mRNA Translation in H4 Neuroglioblastoma Cells. [Related pubchem assays: 1827 (Project Summary), 1813 (Primary HTS)]; format: functional
[21] = test system: HeLa; test: ATP-based viability loss in HeLa cells – cell-based, CellTiter-Glo luminescence, cherry-pick samples, cytotoxicity control for MITF activator project, dose response (AID 540259); format: functional; conditions: Homo sapiens
[22] = biological target: T3, Perilipin-1/ABHD5 (Homo sapiens, UniProt O60240+Q8WTS1); test: Luminescence-based biochemical high throughput dose response assay for inhibitors of the interaction of the lipase co-activator protein, abhydrolase domain containing 5 (ABHD5) with perilipin-1 (PLIN1) (2K validation set). [Related pubchem assays (depositor defined):AID493027, AID493057]
T3 sequence (Q8WTS1 whole entry): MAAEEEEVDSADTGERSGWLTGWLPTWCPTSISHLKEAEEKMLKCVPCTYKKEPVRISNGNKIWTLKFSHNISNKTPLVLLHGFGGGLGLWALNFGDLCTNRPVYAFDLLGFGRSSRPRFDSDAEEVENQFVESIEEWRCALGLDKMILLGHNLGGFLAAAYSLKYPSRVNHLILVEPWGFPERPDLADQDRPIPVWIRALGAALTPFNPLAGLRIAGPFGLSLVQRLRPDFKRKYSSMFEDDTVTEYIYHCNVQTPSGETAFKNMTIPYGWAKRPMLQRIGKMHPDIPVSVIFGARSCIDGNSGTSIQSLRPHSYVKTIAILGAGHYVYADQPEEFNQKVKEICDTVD
T3 sequence (O60240 whole entry): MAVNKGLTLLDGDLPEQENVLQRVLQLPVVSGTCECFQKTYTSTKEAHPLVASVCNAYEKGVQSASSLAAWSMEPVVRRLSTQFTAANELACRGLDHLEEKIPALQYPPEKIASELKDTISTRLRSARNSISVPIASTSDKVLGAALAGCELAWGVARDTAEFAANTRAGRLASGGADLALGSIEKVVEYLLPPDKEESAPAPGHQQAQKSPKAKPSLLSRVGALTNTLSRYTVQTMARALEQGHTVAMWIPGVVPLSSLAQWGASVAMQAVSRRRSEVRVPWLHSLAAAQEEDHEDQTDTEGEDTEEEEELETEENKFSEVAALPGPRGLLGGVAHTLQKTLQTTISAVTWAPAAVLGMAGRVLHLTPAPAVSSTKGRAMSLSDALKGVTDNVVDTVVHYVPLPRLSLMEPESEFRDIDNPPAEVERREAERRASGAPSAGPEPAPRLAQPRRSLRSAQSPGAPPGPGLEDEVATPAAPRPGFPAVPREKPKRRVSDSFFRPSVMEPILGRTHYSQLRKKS

[23] = biological target: T4, Protein skinhead-1 (Caenorhabditis elegans, UniProt P34707); format: functional
T4 sequence (P34707 whole entry): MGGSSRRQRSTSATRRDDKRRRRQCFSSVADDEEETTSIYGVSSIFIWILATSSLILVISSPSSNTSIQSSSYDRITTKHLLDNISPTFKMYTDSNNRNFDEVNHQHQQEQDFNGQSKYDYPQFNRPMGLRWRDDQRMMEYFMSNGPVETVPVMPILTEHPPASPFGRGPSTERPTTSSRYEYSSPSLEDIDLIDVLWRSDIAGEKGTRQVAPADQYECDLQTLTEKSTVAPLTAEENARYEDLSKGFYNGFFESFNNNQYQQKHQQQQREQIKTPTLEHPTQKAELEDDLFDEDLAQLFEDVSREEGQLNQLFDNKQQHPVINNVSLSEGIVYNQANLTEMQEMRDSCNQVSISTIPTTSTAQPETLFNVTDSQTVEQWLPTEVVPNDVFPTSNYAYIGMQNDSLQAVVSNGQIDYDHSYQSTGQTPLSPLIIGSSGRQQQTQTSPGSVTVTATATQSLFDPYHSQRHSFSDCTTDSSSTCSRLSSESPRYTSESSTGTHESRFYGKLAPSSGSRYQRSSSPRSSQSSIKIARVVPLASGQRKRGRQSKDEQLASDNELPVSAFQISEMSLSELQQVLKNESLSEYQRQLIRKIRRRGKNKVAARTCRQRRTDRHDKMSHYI

[24] = Luminescence Cell-Based Dose Retest to Confirm Inhibitors of Cancer Stem Cells. [Related pubchem assays (depositor defined):AID2717, AID2721]; format: functional; conditions: Homo sapiens
[25] = test system: Vero; test: cells; format: functional; conditions: Chlorocebus sabaeus
[26] = biological target: T5, 1-acylglycerol-3-phosphate O-acyltransferase ABHD5/Perilipin-5 (Homo sapiens, UniProt Q00G26+Q8WTS1); test: Luminescence-based biochemical high throughput dose response assay for inhibitors of the interaction of the lipase co-activator protein, abhydrolase domain containing 5 (ABHD5) with perilipin-5 (MLDP; PLIN5) (2K validation set). [Related pubchem assays (depositor defined):AID493035, AID493241]
T5 sequence (Q00G26 whole entry): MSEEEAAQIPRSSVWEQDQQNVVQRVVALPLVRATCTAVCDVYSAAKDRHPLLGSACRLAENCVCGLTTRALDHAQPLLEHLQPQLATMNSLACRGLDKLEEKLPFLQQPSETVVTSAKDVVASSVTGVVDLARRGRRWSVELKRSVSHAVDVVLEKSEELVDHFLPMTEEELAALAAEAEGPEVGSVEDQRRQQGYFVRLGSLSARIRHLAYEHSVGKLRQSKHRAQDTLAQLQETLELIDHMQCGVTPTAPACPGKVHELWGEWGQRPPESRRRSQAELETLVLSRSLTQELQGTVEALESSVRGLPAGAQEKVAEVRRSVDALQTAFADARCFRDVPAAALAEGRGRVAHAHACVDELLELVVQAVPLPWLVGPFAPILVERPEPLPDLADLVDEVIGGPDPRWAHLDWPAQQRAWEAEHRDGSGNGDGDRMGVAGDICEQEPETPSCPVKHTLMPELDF
T5 sequence (Q8WTS1 whole entry): T3 sequence (Q8WTS1 whole entry)

[27] = test system: Vero; test: cells; format: functional, cell-based; conditions: Chlorocebus sabaeus

Beta-2 adrenergic receptor, sequence (P07550 whole entry): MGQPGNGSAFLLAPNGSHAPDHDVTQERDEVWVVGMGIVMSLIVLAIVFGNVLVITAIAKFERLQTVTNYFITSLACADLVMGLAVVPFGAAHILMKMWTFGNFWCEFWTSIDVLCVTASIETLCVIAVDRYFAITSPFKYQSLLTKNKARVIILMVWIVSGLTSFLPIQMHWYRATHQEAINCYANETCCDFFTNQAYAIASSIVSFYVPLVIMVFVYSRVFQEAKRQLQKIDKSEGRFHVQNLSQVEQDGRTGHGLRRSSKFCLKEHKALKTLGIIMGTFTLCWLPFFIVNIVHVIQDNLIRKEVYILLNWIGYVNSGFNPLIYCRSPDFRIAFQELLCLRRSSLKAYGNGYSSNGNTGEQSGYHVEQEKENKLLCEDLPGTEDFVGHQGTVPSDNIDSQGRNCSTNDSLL

Compound: COc1ccc(Cn2c(SCc3cc(C)ccc3C)nc3cc(OC)c(OC)cc3c2=N)cc1
- EC50 [1]: 2.47 µM (active)
- IC50 [2]: 10.7 µM (inactive)
- EC50 [3]: 6.67 µM (active)
- EC50 [4]: 1.19 µM (active)
- EC50 [5]: 24.1 µM (active)
- EC50 [6]: 83.4 µM (inactive)
- AC50 [7]: 11.2 µM (active)
- EC50 [8]: 9.83 µM (active)
- EC50 [9]: 10.8 µM (active)
- EC50 [10]: > 56 µM (inactive)
- EC50 [11]: 6.95 µM (active)
- AC50 [12]: 7.91 µM (active)
- AC50 [13]: 7.9 µM (active)
- EC50 [14]: 8.37 µM (active)
- EC50 [15]: > 54.7 µM (inactive)
- EC50 [16]: 1.88 µM (active)
- AC50 [17]: 9.31 µM (active)
- AC50 [18]: 3.48 µM (active)
- EC50 [19]: 5.16 µM (active)
- EC50 [20]: 30.7 µM (active)

Compound: Cc1cc(C)c2c(N)c(-c3nnc(SCc4ccc(Cl)cc4)n3C)sc2n1
- EC50 [6]: 0.252 µM (active)

Compound: Cn1cccc1C(=O)C(=O)Nc1ccc(F)c(F)c1
- AC50 [21]: 72.6 µM (active)

Compound: O=C(/C=C/c1ccccc1)/C=C/c1ccccc1
- EC50 [1]: 1.22 µM (active)
- IC50 [22]: 1.52 µM (active)
- IC50 [23]: 11.6 µM (active)
- AC50 [24]: 1.42 µM (active)
- CC50 [25]: 19.1 µM (active)
- IC50 [26]: 1.48 µM (active)
- EC50 [16]: 0.953 µM (active)
- IC50 [27]: > 25 µM (active)
